# Biological target: T1, ABCG2 (Homo sapiens, UniProt Q9UNQ0)
# T1 construct: total membranes of ABCG2-expressing High Five insect cells
# T1 sequence (Q9UNQ0 1-655): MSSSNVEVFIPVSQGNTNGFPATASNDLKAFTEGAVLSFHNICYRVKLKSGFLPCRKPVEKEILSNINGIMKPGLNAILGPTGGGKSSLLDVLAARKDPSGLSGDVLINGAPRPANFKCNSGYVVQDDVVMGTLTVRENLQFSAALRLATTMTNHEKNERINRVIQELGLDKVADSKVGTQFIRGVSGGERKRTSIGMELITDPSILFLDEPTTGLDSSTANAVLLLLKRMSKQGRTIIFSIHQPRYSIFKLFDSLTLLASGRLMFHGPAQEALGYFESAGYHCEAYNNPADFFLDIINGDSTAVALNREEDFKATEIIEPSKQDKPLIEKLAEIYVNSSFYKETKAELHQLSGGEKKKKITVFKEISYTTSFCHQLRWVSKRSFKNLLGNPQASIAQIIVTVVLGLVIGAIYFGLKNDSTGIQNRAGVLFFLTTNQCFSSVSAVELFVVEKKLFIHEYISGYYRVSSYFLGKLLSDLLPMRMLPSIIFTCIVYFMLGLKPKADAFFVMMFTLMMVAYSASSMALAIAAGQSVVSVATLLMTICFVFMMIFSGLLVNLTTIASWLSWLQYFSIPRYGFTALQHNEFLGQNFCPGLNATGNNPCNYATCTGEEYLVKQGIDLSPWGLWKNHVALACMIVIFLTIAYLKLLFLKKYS
# Test: stimulation of vanadate-sensitive ATPase activity in ABCG2-expressing insect cell membranes; also PhA efflux inhibition in HCT-116/BCRP cells
# Type: biochemical
smiles,measurement,value
"COc1ccc(-c2c3occc3c(OC[C@H]3OC3(C)C)c3ccc(=O)oc23)cc1OC [PFC, (R)-9-(3,4-dimethoxyphenyl)-4-((3,3-dimethyloxiran-2-yl)methoxy)-7H-furo [3,2-g]chromen-7-one]",EC50,3.8 ± 0.64 nM

# Source: article PMC8618058, “A Phenylfurocoumarin Derivative Reverses ABCG2-Mediated Multidrug Resistance In Vitro and In Vivo” (International Journal of Molecular Sciences, 2021)
